The values that follow are results of earlier work, collected in patent US20050147665A1, “Pharmaceutical and nutritional compositions” (Laxdale Limited, priority 1999, published 2005).

Structures are written as SMILES.

For the data set the following is noted: patients with end-stage renal disease; lowering homocysteine by treatment with folic acid.

With `Nc1nc2ncc(CNc3ccc(C(=O)N[C@@H](CCC(=O)O)C(=O)O)cc3)nc2c(=O)[nH]1` [folic acid], the “elevations of DGLA and AA levels” value was “significant in the cases of DGLA and AA”; the “elevations of EPA and DHA levels” value is “not significant in the cases of EPA and DHA”.
